US20100056524A1, “Compound” (priority 2008, published 2010)
pIC50: −log10 of the molar value. Counter-ions that a name gives are not always drawn.

What follows are compounds tested against T1, TBK1 (Homo sapiens, UniProt Q9UHD2) (assay: TBK1 protein kinase assay ([γ-33P]ATP, P81 filterplates)). Details: 50 μM ATP; read-out: Potency (TBK1 IC50 potency score).
T1 construct: All protein kinases were of human origin and encoded full length proteins, unless indicated otherwise; His6; made in house; host or cells: insect Sf21 cells
T1 sequence (Q9UHD2 1-729): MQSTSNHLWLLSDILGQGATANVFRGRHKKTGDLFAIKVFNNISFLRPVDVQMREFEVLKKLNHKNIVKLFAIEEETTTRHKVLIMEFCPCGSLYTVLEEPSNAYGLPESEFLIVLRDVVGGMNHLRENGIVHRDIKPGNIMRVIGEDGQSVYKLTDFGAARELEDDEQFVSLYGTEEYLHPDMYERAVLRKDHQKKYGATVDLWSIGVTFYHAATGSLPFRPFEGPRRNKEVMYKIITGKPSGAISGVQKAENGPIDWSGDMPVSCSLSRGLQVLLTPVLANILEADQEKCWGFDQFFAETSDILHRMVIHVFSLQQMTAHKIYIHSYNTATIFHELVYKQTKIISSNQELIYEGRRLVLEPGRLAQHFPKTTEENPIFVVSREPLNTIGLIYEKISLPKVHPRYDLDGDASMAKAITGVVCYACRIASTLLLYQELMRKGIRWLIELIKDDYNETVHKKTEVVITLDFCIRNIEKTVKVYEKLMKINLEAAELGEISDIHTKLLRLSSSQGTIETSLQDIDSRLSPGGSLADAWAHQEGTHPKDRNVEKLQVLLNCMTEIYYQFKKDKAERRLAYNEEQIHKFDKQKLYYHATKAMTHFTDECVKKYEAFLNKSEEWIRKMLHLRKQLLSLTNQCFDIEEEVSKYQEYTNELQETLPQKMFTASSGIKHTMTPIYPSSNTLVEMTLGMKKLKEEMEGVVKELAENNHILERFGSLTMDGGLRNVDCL
Format: biochemical
Excerpt: All protein kinases were of human origin and encoded full length proteins, unless indicated otherwise. They were either expressed as glutathione S-transferase (GST) fusion proteins in Escherichia Coli or as hexahistidine (His6)-tagged proteins in insect Sf21 cells. GST fusion proteins were purified by affinity chromatography on glutathione-Sepharose, and His6-tagged proteins on nickel/nitriloacetate-agarose. The procedures for expressing some of the protein kinases used herein have been detailed previously.^8,9 The following sections outline the DNA vectors synthesised and the procedures used to express and purifying protein kinases that have not been reported previously.
The following kinases were expressed in Sf21 cells: Aurora B and Aurora C, extra-cellular signal-regulated kinase 8 (ERK8), microtubule affinity regulating kinase 3 (MARK3), protein kinase Bα[118-480][S473D], protein kinase Bβ (PKBβ[120-481][S474D], 3-phosphoinositide-dependent protein kinase-1 [52-556]
Assays were performed for 30 min using Multidrop Micro reagent dispensers (Thermo Electron Corporation, Waltham, Mass. 02454, USA) in a 96-well format. The concentration of magnesium acetate in the assays was 10 mM and the [γ-33P] ATP (800 cpm/pmol) was used at 5, 20 or 50 μM as indicated, in order to be at or below the Km for ATP for each enzyme. Protein kinases assayed at 5 μM ATP were: —ERK1, ERK8, PKBα, MARK3, Aurora C. Protein kinases assayed at 20 μM ATP were: —JNK1, PDK1, CHK1, CHK2, CDK2 and Aurora B. Protein kinases assayed at 50 μM ATP were: —MNK2, IKKepsilon and TBK1.
The assays were initiated with MgATP, stopped by addition of 5 μl of 0.5 M orthophosphoric acid and spotted on to P81 filterplates using a unifilter harvester (PerkinElmer, Boston, Mass. 02118, USA). The IC50 values of inhibitors were determined after carrying out assays at 10 different concentrations of each compound.
ERK1 and ERK8 were both assayed against myelin basic protein (MBP, 0.33 mg/ml). MARK3 was assayed against the peptide […] (300 μM), MNK2 against the eIF4E protein (0.5 mg/ml). PKBβ was assayed against the peptide […] (30 μM). TBK1 were assayed against ([…]) (300 μM). The substrates used for other protein kinases were described previously.^8,9
Unless stated otherwise, enzymes were diluted in 50 mM Tris/HCl pH 7.5, 0.1 mM EGTA, 1 mg/ml BSA, 0.1% (v/v) 2-mercaptoethanol and assayed in 50 mM Tris/HCl pH 7.5, 0.1 mM EGTA, 0.1% (v/v) 2-mercaptoethanol.

Compared with `CC(=O)NCCCNc1nc(Nc2cccc(F)c2)ncc1C1CC1` [Example 1, N-{3-[5-Cyclopropyl-2-(3-fluoro-phenylamino)-pyrimidin-4-ylamino]-propyl}-acetamide trifluoroacetic acid salt], `CC(C)C(=O)NCCCNc1nc(Nc2cccc(F)c2)ncc1C1CC1` [Example 2, N-{3-[5-Cyclopropyl-2-(3-fluoro-phenylamino)-pyrimidin-4-ylamino]-propyl}-isobutyramide trifluoroacetic acid salt] is higher in pIC50: 6.00 to 7.00 for the first, greater than 7.00 for the second. The second is the more potent here.

`O=C(NCCCNc1nc(Nc2cccc(F)c2)ncc1C1CC1)C1CCCCC1` [Example 3, Cyclohexanecarboxylic acid {3-[5-cyclopropyl-2-(3-fluoro-phenylamino)-pyrimidin-4-ylamino]-propyl}-amide trifluoroacetic acid salt] and `O=C(CC1CCCC1)NCCCNc1nc(Nc2cccc(F)c2)ncc1C1CC1` [Example 6, 2-Cyclopentyl-N-{3-[5-cyclopropyl-2-(3-fluoro-phenylamino)-pyrimidin-4-ylamino]-propyl}-acetamide trifluoroacetic acid salt] cannot be ordered by pIC50: greater than 7.00 for the first, greater than 7.00 for the second.

Compared with `CN(C)CC(=O)NCCCNc1nc(Nc2cccc(F)c2)ncc1C1CC1` [Example 4, N-{3-[5-Cyclopropyl-2-(3-fluoro-phenylamino)-pyrimidin-4-ylamino]-propyl}-2-dimethylamino-acetamide trifluoroacetic acid salt], `Cc1n[nH]c(C)c1C(=O)NCCCNc1nc(Nc2cccc(F)c2)ncc1C1CC1` [Example 13, 3,5-Dimethyl-1H-pyrazole-4-carboxylic acid {3-[5-cyclopropyl-2-(3-fluoro-phenylamino)-pyrimidin-4-ylamino]-propyl}-amide] is lower in pIC50: 6.00 to 7.00 for the first, 5.00 to 6.00 for the second. The first is the more potent here.

`O=C(NCCCNc1nc(Nc2cccc(F)c2)ncc1C1CC1)c1ccco1` [Example 5, Furan-2-carboxylic acid{3-[5-cyclopropyl-2-(3-fluoro-phenylamino)-pyrimidin-4-ylamino]-propyl}-amide trifluoroacetic acid salt] and `Cn1cccc1C(=O)NCCCNc1nc(Nc2cccc(F)c2)ncc1C1CC1` [Example 16, 1-Methyl-1H-pyrrole-2-carboxylic acid {3-[5-cyclopropyl-2-(3-fluoro-phenylamino)-pyrimidin-4-ylamino]-propyl}-amide] fall in the same range of pIC50: 6.00 to 7.00 for the first, 6.00 to 7.00 for the second.

First: O=C(NCCCNc1nc(Nc2cccc(F)c2)ncc1C1CC1)c1ccn[nH]1 [Example 7, 2H-Pyrazole-3-carboxylic acid {3-[5-cyclopropyl-2-(3-fluoro-phenylamino)-pyrimidin-4-ylamino]-propyl}-amide trifluoroacetic acid salt]
Second: O=C(NCCCNc1nc(Nc2cccc(F)c2)ncc1C1CC1)c1nccs1 [Example 20, Thiazole-2-carboxylic acid {3-[5-cyclopropyl-2-(3-fluoro-phenylamino)-pyrimidin-4-ylamino]-propyl}-amide]
The pIC50 of the first is lower: 6.00 to 7.00 for the first, greater than 7.00 for the second.

Compared with `Cc1oncc1C(=O)NCCCNc1nc(Nc2cccc(F)c2)ncc1C1CC1` [Example 8, 5-Methyl-isoxazole-4-carboxylic acid{3-[5-cyclopropyl-2-(3-fluoro-phenylamino)-pyrimidin-4-ylamino]-propyl}-amide trifluoroacetic acid salt], `Cc1ccc(C(=O)NCCCNc2nc(Nc3cccc(F)c3)ncc2C2CC2)s1` [Example 12, 5-Methyl-thiophene-2-carboxylic acid {3-[5-cyclopropyl-2-(3-fluoro-phenylamino)-pyrimidin-4-ylamino]-propyl}-amide] is lower in pIC50: greater than 7.00 for the first, 6.00 to 7.00 for the second.

`O=C(NCCCNc1nc(Nc2cccc(F)c2)ncc1C1CC1)c1nc[nH]n1` [Example 9, 1H-1,2,4-Triazole-3-carboxylic acid {3-[5-cyclopropyl-2-(3-fluoro-phenylamino)-pyrimidin-4-ylamino]-propyl}-amide trifluoroacetic acid salt] and `O=C(NCCCNc1nc(Nc2cccc(F)c2)ncc1C1CC1)c1cocn1` [Example 19, Oxazole-4-carboxylic acid {3-[5-cyclopropyl-2-(3-fluoro-phenylamino)-pyrimidin-4-ylamino]-propyl}-amide] fall in the same range of pIC50: 6.00 to 7.00 for the first, 6.00 to 7.00 for the second.

`Cn1cnc(C(=O)NCCCNc2nc(Nc3cccc(F)c3)ncc2C2CC2)c1` [Example 10, 1-Methyl-1H-imidazole-4-carboxylic acid {3-[5-cyclopropyl-2-(3-fluoro-phenylamino)-pyrimidin-4-ylamino]-propyl}-amide trifluoroacetic acid salt] and `Cn1ccnc1C(=O)NCCCNc1nc(Nc2cccc(F)c2)ncc1C1CC1` [Example 18, 1-Methyl-1H-imidazole-2-carboxylic acid {3-[5-cyclopropyl-2-(3-fluoro-phenylamino)-pyrimidin-4-ylamino]-propyl}-amide] fall in the same range of pIC50: 5.00 to 6.00 for the first, 5.00 to 6.00 for the second.

First: O=C(NCCCNc1nc(Nc2cccc(F)c2)ncc1C1CC1)c1cncs1 [Example 11, Thiazole-5-carboxylic acid {3-[5-cyclopropyl-2-(3-fluoro-phenylamino)-pyrimidin-4-ylamino]-propyl}-amide]
Second: O=C(NCCCNc1nc(Nc2cccc(F)c2)ncc1C1CC1)c1ccc(Cl)s1 [Example 21, 5-Chloro-thiophene-2-carboxylic acid {3-[5-cyclopropyl-2-(3-fluoro-phenylamino)-pyrimidin-4-ylamino]-propyl}-amide]
The pIC50 of the first is higher: greater than 7.00 for the first, 6.00 to 7.00 for the second.

First: O=C(NCCCNc1nc(Nc2cccc(F)c2)ncc1C1CC1)C1CCOC1 (stereo not shown) [Example 14, Tetrahydro-furan-3-carboxylic acid {3-[5-cyclopropyl-2-(3-fluoro-phenylamino)-pyrimidin-4-ylamino]-propyl}-amide]
Second: O=C(NCCCNc1nc(Nc2cccc(F)c2)ncc1C1CC1)C1CCCO1 (stereo not shown) [Example 15, Tetrahydro-furan-2-carboxylic acid {3-[5-cyclopropyl-2-(3-fluoro-phenylamino)-pyrimidin-4-ylamino]-propyl}-amide]
The pIC50 of the first is higher: greater than 7.00 for the first, 6.00 to 7.00 for the second. The first is the more potent here.

With `O=C(NCCCNc1nc(Nc2cccc(F)c2)ncc1C1CC1)c1ccsc1` [Example 17, Thiophene-3-carboxylic acid {3-[5-cyclopropyl-2-(3-fluoro-phenylamino)-pyrimidin-4-ylamino]-propyl}-amide] the pIC50 was greater than 7.00.

Same assay, conditions: Table 5; 50 μM ATP; read-out: TBK1 IC50

Point of comparison: `CCc1cnc(Nc2cccc(F)c2)nc1NCCCNC(=O)C1CCC1` [Compound D, cyclobutanecarboxylic acid {3-[5-ethyl-2-(3-fluoro-phenylamino)-pyrimidin-4-ylamino]-propyl}-amide, reference compound], pIC50 7.38. Against it:
- CC(C)c1cnc(Nc2cccc(F)c2)nc1NCCCNC(=O)C1CCC1 [Compound B, cyclobutanecarboxylic acid {3-[2-(3-fluoro-phenylamino)-5-isopropyl-pyrimidin-4-ylamino]-propyl}-amide, reference compound] — lower, < 6.00
- O=C(NCCCNc1nc(Nc2cccc(F)c2)ncc1CC1CC1)C1CCC1 [Compound C, cyclobutanecarboxylic acid {3-[5-cyclopropylmethyl-2-(3-fluoro-phenylamino)-pyrimidin-4-ylamino]-propyl}-amide, reference compound] — lower, < 6.00

Same assay, conditions: from TBK1 IC50 values of Table 5

For `CCc1cnc(Nc2cccc(F)c2)nc1NCCCNC(=O)C1CCC1` [Compound D, cyclobutanecarboxylic acid {3-[5-ethyl-2-(3-fluoro-phenylamino)-pyrimidin-4-ylamino]-propyl}-amide, reference compound], the “fold loss in activity against TBK1 compared to Example 23” value was 10 fold.
